Measurements from patent publication US20030162777A1, “Novel N-acylated heterocycles” (Recordati S.A., priority 2001, published 2003).

Columns and labels:
[1] = target: T1, human 5HT1A-serotonergic receptor (Homo sapiens, UniProt P08908); test: Radioligand binding to recombinant 5-HT1A receptors; conditions: [3H]8-OH-DPAT 1 nM, membranes of HeLa cells with human 5-HT1A receptor; Ki from IC50 by Cheng & Prusoff; read-out: Binding affinity for 5HT1A receptors, Ki
T1 construct: expressed in transfected cells; host or cells: HeLa (human cell line), stably transfected; cell membranes used
T1 sequence (P08908 1-422): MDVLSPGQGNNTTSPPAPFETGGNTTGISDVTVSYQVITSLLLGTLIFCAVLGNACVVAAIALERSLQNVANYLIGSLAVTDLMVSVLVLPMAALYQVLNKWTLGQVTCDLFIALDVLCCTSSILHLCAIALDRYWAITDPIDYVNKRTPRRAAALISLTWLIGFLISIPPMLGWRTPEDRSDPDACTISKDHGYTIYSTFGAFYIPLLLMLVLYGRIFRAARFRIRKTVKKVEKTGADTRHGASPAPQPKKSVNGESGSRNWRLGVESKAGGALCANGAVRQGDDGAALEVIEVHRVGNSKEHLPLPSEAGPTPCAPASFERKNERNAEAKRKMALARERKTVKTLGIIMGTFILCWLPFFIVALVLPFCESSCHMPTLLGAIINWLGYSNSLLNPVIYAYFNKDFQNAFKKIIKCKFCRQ
How it was run: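 Membranes from HeLa cells stably expressing human 5-HT1A incubated 30 min at 30 °C with 1 nM [3H]8-OH-DPAT and compound in 50 mM Tris-HCl pH 7.4, 2.5 mM MgCl2, […] pargyline. Nonspecific binding defined with 10 μM 5-HT; filtration readout, IC50 converted to Ki via Cheng–Prusoff.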

5-HT1A receptors = target: T2, 5-HT1A receptors (Rattus norvegicus, UniProt P19327); test: Inhibition of stereotypy (rhythmic forepaw treading) induced by 8-OH-DPAT in rats (post-synaptic antagonism); assay type: in vivo; conditions: for inhibition at 10 mg/kg / inhibition at 1 mg/kg: rat; for inhibition at 10 mg/kg: 10 mg/kg p.o.; for post-synaptic 5-HT1A-receptor antagonist activity (in words) / inhibition at 1 mg/kg: 1 mg/kg p.o.; for post-synaptic 5-HT1A-receptor antagonist activity (in words): rats
T2 construct: from tissue; host or cells: whole animal: male Sprague-Dawley rats (post-synaptic 5-HT1A receptors)
T2 sequence (P19327 1-422): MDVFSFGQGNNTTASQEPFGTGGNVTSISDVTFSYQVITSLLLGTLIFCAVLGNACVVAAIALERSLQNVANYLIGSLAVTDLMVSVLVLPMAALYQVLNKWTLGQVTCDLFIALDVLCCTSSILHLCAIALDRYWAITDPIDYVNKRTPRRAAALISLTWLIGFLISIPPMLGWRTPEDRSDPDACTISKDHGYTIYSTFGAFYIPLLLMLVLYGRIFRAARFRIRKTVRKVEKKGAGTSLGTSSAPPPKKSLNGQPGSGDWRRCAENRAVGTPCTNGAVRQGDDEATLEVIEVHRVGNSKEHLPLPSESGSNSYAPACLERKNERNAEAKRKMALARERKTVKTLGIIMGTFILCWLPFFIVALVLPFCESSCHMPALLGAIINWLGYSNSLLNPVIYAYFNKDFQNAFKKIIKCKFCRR
Protocol: The inhibitory effect of 5-HT1A-receptor antagonists on stereotyped forepaw treading induced in rats by subcutaneous injection of 8-OH-DPAT was evaluated by the method of Tricklebank (Tricklebanket al., Eur. J. Pharmacol., 117: 15, 1985) with minor modifications as described below.
Male Sprague-Dawley rats [Crl: CD° (SD) BR] weighing 150-175 g from Charles River Italia were used. The animals were housed with free access to food and water and maintained on a forced 12-hour-light/12-hour-dark cycle at 22-24° C. of temperature. On the day of the experiment, the rats were placed singly in clear plastic containers, 10-15 minutes before administration of the vehicle or compounds to be tested. For evaluation of antagonistic activity after oral administration, the compounds were administered 0.5, 1 and 4 hours before induction of stereotypy by 8-OH-DPAT (1 mg/kg subcutaneously). Observation sessions lasted 30 seconds and began 3 minutes after 8-OH-DPAT treatment and were repeated every 3 minutes over a period of 15 minutes.
The appearance of the symptom induced by postsynaptic stimulation of 5-HT1A receptors was noted, and the intensity was scored using an intensity scale in which: 0=absent, 1=equivocal, 2=present and 3=intense. Behavioural scores for treated rats were accumulated throughout the observation time (5 observation periods) and expressed as mean values of 4 rats/dose. Change in mean values of treated animals in comparison with control (vehicle) group, expressed as per-cent inhibition, was used in order to quantify the antagonistic activity.

anaesthetised rats = test: Effects on rhythmic bladder-voiding contractions induced by bladder filling in anaesthetised rats; assay type: in vivo, rat; conditions: intravenous administration, urethane-anaesthetised rats; for ED50: Rattus norvegicus, read-out: ED50 frequency (extrapolated dose inducing a reduction of the number of contractions >30% in 50% of treated rats)
Protocol: Female Sprague-Dawley rats weighing 225-275 g (Crl: CDo Br, Charles River Italia) were used. The animals were housed with free access to food and water and maintained on a forced 12-hour alternating light-dark cycle at 22-24° C. for at least one week, except during the experiment. The activity on rhythmic bladder voiding contractions was evaluated according to the method of Dray (Dray J., Pharmacol. Methods, 13:157, 1985), with some modifications as in Guarneri (Guarneri, Pharmacol. Res. 27:173, 1993). Briefly, the rats were anaesthetised by subcutaneous injection of 1.25 g/kg (5 ml/kg) urethane, after which the urinary bladder was catheterised via the urethra using PE 50 polyethylene tubing filled with physiological saline. The catheter was tied in place with a ligature around the external urethral orifice and was connected to conventional pressure transducers (Statham P23 ID/P23 XL). […] The bladder was then filled via the recording catheter by incremental volumes of warm (37° C.) saline until reflex bladder-voiding contractions occurred (usually 0.8-1.5 ml). For intravenous injection of bioactive compounds, PE 50 polyethylene tubing filled with physiological saline was inserted into the jugular vein.
From the cystometrogram, the number of contractions recorded 15 minutes before (basal values) and after treatment, as well as the mean amplitude of these contractions (mean height of the peaks in mmHg), was evaluated.
Since most compounds produced an effect that was relatively rapid in onset and led to a complete cessation of bladder contractions, bioactivity was conveniently estimated by measuring the duration of bladder quiescence (i.e. the length of the time during which no contractions occurred). The number of tested animals showing a reduction in the number of contractions higher than 30% of that observed in the basal period was recorded too.
The extrapolated doses which induced a reduction in the number of contractions greater than 30% in 50% of the treated rats (ED50) were evaluated by the method of Bliss (Bliss C. I., Quart J. Pharm. Pharmacol. 11, 192-216, 1938).

[2] = 0.5 h before 8-OH-DPAT (1 mg/kg s.c.)
[3] = 1 h before 8-OH-DPAT (1 mg/kg s.c.)
[4] = 4 h before 8-OH-DPAT (1 mg/kg s.c.)

| Compound | Ki [1] | inhibition at 10 mg/kg (5-HT1A receptors; [2]) | inhibition at 10 mg/kg (5-HT1A receptors; [3]) | inhibition at 10 mg/kg (5-HT1A receptors; [4]) | ED50 (anaesthetised rats) | ED10 min (extrapolated dose inducing 10 minutes of disappearance of the contractions) (anaesthetised rats) | post-synaptic 5-HT1A-receptor antagonist activity (in words) (5-HT1A receptors) | inhibition at 1 mg/kg (5-HT1A receptors; [2]) | inhibition at 1 mg/kg (5-HT1A receptors; [3]) | inhibition at 1 mg/kg (5-HT1A receptors; [4]) |
| --- | --- | --- | --- | --- | --- | --- | --- | --- | --- | --- |
| O=C(C1CCCC1)N1c2ccccc2CCC1CN1CCN(c2cccc3[nH]ccc23)CC1 (stereo not shown) [Example 24A3, 1-(1-Cyclopentanecarbonyl-1,2,3,4-tetrahydroquinoline-2-ylmethyl)-4-(4-indolyl)piperazine] | 5.4 nM | 100% | 93% | 100% | – | – | – | – | – | – |
| O=C(C1CCCCC1)N1c2ccc(F)cc2CCC1CN1CCN(c2cccc3[nH]ccc23)CC1 (stereo not shown) [Example 18, 1-(1-Cyclohexanecarbonyl-6-fluoro-1,2,3,4-tetrahydroquinoline-2-ylmethyl)-4-(4-indolyl)piperazine] | 2.8 nM | 98% | 92% | 92% | – | – | – | – | – | – |
| Cc1c(-c2ccccc2)oc2c(C(=O)OCCN3CCCCC3)cccc2c1=O [Flavoxate, flavoxate, reference compound] | – | – | – | – | 2.65 mg/kg | >10000 µg/kg | – | – | – | – |
| O=C(C1CC=CCC1)N1c2ccccc2CCC1CN1CCN(c2cccc3[nH]ccc23)CC1 (stereo not shown) [Example 24A1, 1-(1-Cyclohex-3-enylcarbonyl-1,2,3,4-tetrahydroquinoline-2-ylmethyl)-4-(4-indolyl)piperazine] | 2.6 nM | 100% | 100% | 100% | – | – | – | – | – | – |
| COc1ccccc1N1CCN(CCC2CCc3ccccc3N2C(=O)C2CCCCC2)CC1 (stereo not shown) [Example 3, 1-[2-(1-Cyclohexanecarbonyl-1,2,3,4-tetrahydroquinoline-2-yl)ethyl]-4-(2-methoxyphenyl)piperazine] | 8.4 nM | – | – | – | 0.02 mg/kg | 80 µg/kg | – | – | – | – |
| COc1ccccc1N1CCN(CC2CCc3ccccc3N2C(=O)C2CCCCC2)CC1 (stereo not shown) [Example 2, 1-(1-Cyclohexanecarbonyl-1,2,3,4-tetrahydroquinoline-2-ylmethyl)-4-(2-methoxyphenyl)piperazine] | 0.3 nM | – | – | – | 0.172 mg/kg | 383 µg/kg | – | – | – | – |
| O=C(C1CCCCC1)N1c2ccccc2CCC1CN1CCN(c2cccc3[nH]ccc23)CC1 (single isomer, unassigned; (-)) [(−)-1, (−)-1-(1-Cyclohexanecarbonyl-1,2,3,4-tetrahydroquinoline-2-ylmethyl)-4-(4-indolyl)piperazine] | – | – | – | – | – | – | devoid of activity | 19% | 5% | 9% |
| Cc1[nH]c2cccc(N3CCN(CC4CCc5ccccc5N4C(=O)C4CCCCC4)CC3)c2c1C (stereo not shown) [Example 35A13, 1-(1-Cyclohexanecarbonyl-1,2,3,4-tetrahydroquinoline-2-ylmethyl)-4-(2,3-dimethyl-4-indolyl)piperazine] | 4 nM | – | 95% | 100% | – | – | – | – | – | – |
| O=C(C1CCCCC1)N1c2ccccc2CCC1CN1CCN(c2cccc3[nH]ccc23)CC1 (single isomer, unassigned; (+)) [Example (+)-1, (+)-1-(1-Cyclohexanecarbonyl-1,2,3,4-tetrahydroquinoline-2-ylmethyl)-4-(4-indolyl)piperazine] | 0.2 nM | – | – | – | 0.024 mg/kg | 72 µg/kg | significant and complete inhibition of the symptom up to 4 hours after administration | 100% | 100% | 98% |
